The values below come from ChEMBL document CHEMBL4616663, “Resorcylic Acid Lactones from an Ilyonectria sp” (J Nat Prod, 2020).

Molecules are shown by their SMILES. pIC50: −log10 of the molar value. Calls of active or inactive are those of the source. No cut-off for these calls is given here.

Assay [1] has as its system A549. The experiment in a line: Cytotoxicity against human A549 cells at 50 uM by MTT assay. It counts as functional, cell-based.
For another assay, the system named is 769-P. The experiment in a line: Cytotoxicity against human 769-P cells at 50 uM by MTT assay. It counts as functional, cell-based.
Another assay deals with HCT-116. The experiment in a line: Cytotoxicity against human HCT116 cells at 50 uM by MTT assay. It counts as functional, cell-based.
Another assay deals with T-cell. The experiment in a line: Immunosuppressive activity in BALB/c mouse T cells assessed as reduction in ConA-induced cell proliferation. It counts as functional, cell-based.
The next assay deals with B-cell line. The assay can be described thus: Immunosuppressive activity in BALB/c mouse B cells assessed as reduction in LPS-induced cell proliferation. It counts as functional, cell-based.
Assay [2] concerns A549. The experiment in a line: Cytotoxicity against TRAIL-resistant human A549 cells assessed as reduction in cell viability at 50 uM cotreated with TRAIL after 24 hrs by MTT assay relative to compound alone. It counts as functional.
The test system of assay [3] is A549. The experiment in a line: Cytotoxicity against TRAIL-resistant human A549 cells assessed as reduction in cell viability at 30 uM cotreated with TRAIL after 24 hrs by MTT assay relative to compound alone. It counts as functional.
The test system of assay [4] is A549. The experiment in a line: Cytotoxicity against TRAIL-resistant human A549 cells assessed as reduction in cell viability at 15 uM cotreated with TRAIL after 24 hrs by MTT assay relative to compound alone. It counts as functional.

With `C[C@H]1OC(=O)c2c(O)cc(O)cc2CC(=O)CCCC/C=C/[C@@H]1O`, the outcome in the assay with A549 [1], in the assay on 769-P and with HCT-116 was inactive. Moreover, the pIC50 in the assay on T-cell and with B-cell line was less than 4.60 in each case.
Consider `COc1c(C)c2c(c(O)c1C/C=C(\C)CCC(=O)OCCN1CCOCC1)C(=O)OC2` [MYCOPHENOLATE MOFETIL], for which the pIC50 in the assay with B-cell line was 5.49.
As for `C[C@@H]1C/C=C/CCCC[C@H](O)CC(=O)Cc2c(Cl)c(O)cc(O)c2C(=O)O1`, the outcome in the assay on A549 [1], in the assay with 769-P and in the assay with HCT-116 was inactive. Further, the Activity in the assay on A549 [2] came to 27%. Besides, the pIC50 in the assay with T-cell and in the assay on B-cell line was less than 4.60 each time.
In the case of `C[C@@H]1C[C@@H]2O[C@H]2[C@@H]2O[C@@H]2/C=C/[C@@H](O)CC(=O)Cc2c(Cl)c(O)cc(O)c2C(=O)O1`, the result in the assay with A549 [1], in the assay with 769-P and in the assay with HCT-116 was inactive. The pIC50 in the assay with T-cell is 5.72; in the assay with B-cell line, 5.96.
With `C[C@@H]1CC[C@H](O)C(=O)CCCC(=O)Cc2c(Cl)c(O)cc(O)c2C(=O)O1`, the outcome with A549 [1], in the assay on 769-P and with HCT-116 was inactive. The pIC50 in the assay on T-cell and in the assay on B-cell line was less than 4.60 each time.
Take `C[C@H]1OC(=O)c2c(O)cc(O)c(Cl)c2/C=C/CC/C=C/[C@@H]1O`: the outcome with A549 [1], in the assay on 769-P and with HCT-116 was inactive. Further, the pIC50 with T-cell and with B-cell line was less than 4.60 throughout.
Consider `C[C@@H]1C/C=C/C(=O)CCCC(=O)Cc2cc(O)cc(O)c2C(=O)O1`, for which the outcome with A549 [1], in the assay with 769-P and in the assay with HCT-116 was inactive. The pIC50 was less than 4.60 in the assay on T-cell and 4.73 with B-cell line.
As to `C[C@@H]1C/C=C/CCCC[C@@H](O)CC(=O)Cc2c(Cl)c(O)cc(O)c2C(=O)O1`, the result with A549 [1], in the assay with 769-P and in the assay with HCT-116 was inactive. Further, the Activity in the assay with A549 [2] came out at 26%. Besides, the pIC50 with T-cell and with B-cell line was less than 4.60 in each case.
In the case of `C[C@@H]1C/C=C/CC/C=C/[C@@H](O)CC(=O)Cc2c(Cl)c(O)cc(O)c2C(=O)O1`, the result in the assay with A549 [1], in the assay on 769-P and in the assay on HCT-116 was inactive. Moreover, the Activity turned out to be 29% in the assay on A549 [2], 31% in the assay on A549 [3] and 22% in the assay on A549 [4]. In addition, the negative-log IC50 (pIC50) in the assay with T-cell is 5.39; in the assay with B-cell line it was 5.01.
Turning to `C[C@@H]1CC(=O)CCC/C=C/C(=O)Cc2c(Cl)c(O)cc(O)c2C(=O)O1`, the result with A549 [1], in the assay with 769-P and with HCT-116 was inactive. The pIC50 in the assay on T-cell and in the assay on B-cell line was less than 4.60 each time.
`CO[C@@H]1C=CC=C2Cc3c(Cl)c(O)cc(O)c3C(=O)O[C@H](C)C[C@@H](O)[C@H]1O2`: the outcome in the assay with A549 [1], in the assay on 769-P and in the assay on HCT-116 was inactive. Also, the pIC50 with T-cell was less than 4.60; with B-cell line, 5.26.
`C[C@@H]1C[C@@H](O)/C=C\CCCC(=O)Cc2c(Cl)c(O)cc(O)c2C(=O)O1`: the result in the assay on A549 [1], in the assay on 769-P and in the assay with HCT-116 was inactive. Moreover, the pIC50 with T-cell is less than 4.60; with B-cell line it was 4.66.
As for `C[C@@H]1C[C@@H](O)[C@@H]2CC[C@H](CC(=O)Cc3cc(O)cc(O)c3C(=O)O1)O2`, the outcome in the assay with A549 [1], in the assay on 769-P and in the assay with HCT-116 was inactive. Further, the negative-log IC50 (pIC50) in the assay on T-cell and with B-cell line was less than 4.60 each time.
